Laboratory results as given in patent US20160257749A1, “ANTI-TIM3 ANTIBODIES AND METHODS OF USE” (Hoffmann-La Roche, Inc., priority 2014, published 2016).

Tests used:
primary CD34+ AML cells = experiment: Cytotoxic activity of Fab-PE24 constructs on primary AML cells from relapsed/refractory patients; format: cell-based, human; conditions: 3 days at 37° C.
Excerpt: CD34+ cells from peripheral blood of relapsed/refractory patients were obtained from AllCells, LLC, Alameda, Calif.
Cycloheximide was used as positive control.

Pfeiffer cells [1] = experiment: Cytotoxic activity, human IgG1 format with anti-human Fc Fab-PE24, CellTiter-Glo; format: cell-based; conditions: full length human IgG1 format + human Fcγ specific Fab-PE 24 (10 μg/ml), 5 days at 37° C.
Excerpt: (§1) Rel. Inhibition [%]=(1−(Esample−Enegative control)/(Epositive control−Enegative control))*100

RPMI-8226 cells [2] = experiment: as above; format: cell-based; conditions: full length human IgG1 format + human Fcγ specific Fab-PE 24 (10 μg/ml), 5 days at 37° C.
Excerpt: as §1

Pfeiffer cells [3] = experiment: Cytotoxic activity of sortase coupled Fab-PE24 constructs, CellTiter-Glo; format: cell-based, human
Description: (§2) Treatment ranges from 50 μg/ml to 8 μg/ml in triplicate. Cycloheximide was used as positive control.

RPMI-8226 cells [4] = experiment: as above; format: cell-based, human
Description: as §2

RPMI-8226 = experiment: Cytotoxic activity of Fab-PE24 constructs, CellTiter-Glo; format: cell-based, human; conditions: 4 days at 37° C.
Description: as §2

CMK = experiment: as above; format: cell-based, human; conditions: 4 days at 37° C.
Description: as §2

TF-1 = experiment: as above; format: cell-based, human; conditions: 4 days at 37° C.
Description: as §2

MOLM-13 = experiment: as above; format: cell-based, human; conditions: 4 days at 37° C.
Description: as §2

Karpas-299 = experiment: as above; format: cell-based, human; conditions: 4 days at 37° C.
Description: as §2

Pfeiffer cells [5] = experiment: Cytotoxic activity of Fab-PE24 construct vs total IgG-Amatoxin conjugate, CellTiter-Glo; format: cell-based, human
Description: as §2

recTIM-3 CHO cells = experiment: Cytotoxic activity, sandwich format with anti-mouse Fc Fab-PE24, CellTiter-Glo; format: cell-based; conditions: Cricetulus griseus, 72 h, full length mouse Fcγ versions + mouse Fcγ specific Fab-PE 24 (10 μg/ml), 3 days at 37° C.
Excerpt: as §1

RNA-polymerase II = RNA-polymerase II (Homo sapiens, UniProt P24928+P30876); conditions: read-out: KD of the complex between amanitin and RNA-polymerase II; cited from earlier work

With `C[C@@H]1C[C@@H]([C@H](O)CC2CC(=O)NC(=O)C2)C(=O)[C@@H](C)C1` [Cycloheximide, reference compound] the “D1; AML CD34+ PB0136 cells Max. killing” value (primary CD34+ AML cells) was 100 [%], the “D2; AML CD34+ PB0142 cells Max. killing” value (primary CD34+ AML cells) was 100 [%] and the “D3; AML CD34+ PB0135 cells Max. killing” value (primary CD34+ AML cells) was 100 [%]. For the same compound, the “D4; AML CD34+ PB0193 cells Max. killing” value (primary CD34+ AML cells) was 100 [%], the “Pfeiffer cells Max. killing” value (Pfeiffer cells [1]) was 100 [%] and the “RPMI-8226 cells Max. killing” value (RPMI-8226 cells [2]) was 100 [%]. For the same compound, the “Pfeiffer cells Max. killing” value (Pfeiffer cells [3]) was 100 [%], the “RPMI-8226 cells Max. killing” value (RPMI-8226 cells [4]) was 100 [%] and the “RPMI-8226 Max. killing” value (RPMI-8226) was 100%. For the same compound, the “CMK Max. killing” value (CMK) was 100%, the “TF-1 Max. killing” value (TF-1) was 100% and the “MOLM-13 Max. killing” value (MOLM-13) was 100%. For the same compound, the “Karpas-299 Max. killing” value (Karpas-299) was 100%, the “Pfeiffer cells Max. killing” value (Pfeiffer cells [5]) was 100 [%] and the IC50 (recTIM-3 CHO cells) was 135 nM.
For amanitin, the Kd (RNA-polymerase II) is given as 3 nM.
